Assay results taken from patent publication US20240174675A1, “SMALL MOLECULE REGULATORS OF ALVEOLAR TYPE 2 CELL PROLIFERATION FOR THE TREATMENT OF PULMONARY DISEASES” (THE SCRIPPS RESEARCH INSTITUTE, priority 2021, published 2024).

Target: T1, Human DPP4 (Homo sapiens, UniProt P27487)
T1 construct: purchased Sigma-Aldrich MAK088
Test: DPP4 activity assay (DPP4 Activity Assay Kit, fluorescent substrate)
Assay type: biochemical
Conditions: Human DPP4; read-out: DPP4 inhibition IC50 [nM])
Protocol: DPP4 activity assay. Human DPP4 activity assay data were obtained using a DPP4 Activity Assay Kit (Sigma-Aldrich, MAK088) according to the manufacturer's instructions. Briefly, 10 μL of DPP4 Assay Buffer were transferred per well in low volume 384-well plates before transferring 10 μL of test compound dissolved in DPP4 assay buffer. To each well was added 5 μL of Master Reaction Mix containing a fluorescent substrate that becomes fluorescent upon cleavage by the enzyme. Fluorescence intensity measurements were recorded at 1-minute time intervals over the course of 20 minutes using an Envision Multimode Plate Reader (PerkinElmer).

T1 sequence (P27487 whole entry): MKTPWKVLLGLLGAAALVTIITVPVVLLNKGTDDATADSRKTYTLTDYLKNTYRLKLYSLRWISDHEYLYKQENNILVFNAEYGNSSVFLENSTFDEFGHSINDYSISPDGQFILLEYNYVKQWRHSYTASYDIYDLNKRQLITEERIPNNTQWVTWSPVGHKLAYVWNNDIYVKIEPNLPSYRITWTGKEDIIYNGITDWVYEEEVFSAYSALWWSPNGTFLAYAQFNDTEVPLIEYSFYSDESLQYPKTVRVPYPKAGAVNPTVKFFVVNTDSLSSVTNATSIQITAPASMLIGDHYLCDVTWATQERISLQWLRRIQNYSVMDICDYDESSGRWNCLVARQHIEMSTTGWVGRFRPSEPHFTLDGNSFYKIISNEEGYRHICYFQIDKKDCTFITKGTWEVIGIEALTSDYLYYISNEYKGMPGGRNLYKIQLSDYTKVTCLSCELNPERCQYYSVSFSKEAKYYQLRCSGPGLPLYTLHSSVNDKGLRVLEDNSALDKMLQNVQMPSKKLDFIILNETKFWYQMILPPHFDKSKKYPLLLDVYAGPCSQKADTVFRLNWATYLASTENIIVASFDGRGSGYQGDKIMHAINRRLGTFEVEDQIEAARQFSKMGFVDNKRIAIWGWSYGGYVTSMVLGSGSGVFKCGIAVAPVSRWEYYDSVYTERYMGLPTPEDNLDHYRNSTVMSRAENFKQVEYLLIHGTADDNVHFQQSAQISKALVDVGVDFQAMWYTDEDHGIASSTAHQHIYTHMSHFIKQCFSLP

SMILES | IC50 [nM]
CC#CCn1c(N2CCC[C@@H](N)C2)nc2c1c(=O)n(Cc1nc(NCCCCCCCn3cc(CN(C[C@H](O)[C@@H](O)[C@H](O)[C@H](O)CO)C[C@H](O)[C@@H](O)[C@H](O)[C@H](O)CO)nn3)ccc1C(=O)OC)c(=O)n2C [Compound 34, methyl 2-((8-((R)-3-aminopiperidin-1-yl)-7-(but-2-yn-1-yl)-3-methyl-2,6-dioxo-2,3,6,7-tetrahydro-1H-purin-1-yl)methyl)-6-((7-(4-((bis((2S,3R,4R,5R)-2,3,4,5,6-pentahydroxyhexyl)amino)methyl)-1H-1,2,3-triazol-1-yl)heptyl)amino)nicotinate] | 41
CC#CCn1c(N2CCC[C@@H](N)C2)nc2c1c(=O)n(Cc1ccc(Cl)cc1C(=O)OCCOCCn1cc(CN(CCCCCC)C[C@H](O)[C@@H](O)[C@H](O)[C@H](O)CO)nn1)c(=O)n2C [Compound 41, 2-(2-(4-((hexyl(2,3,4,5,6-pentahydroxyhexyl)amino)methyl)-1H-1,2,3-triazol-1-yl)ethoxy)ethyl 2-((8-((R)-3-aminopiperidin-1-yl)-7-(but-2-yn-1-yl)-3-methyl-2,6-dioxo-2,3,6,7-tetrahydro-1H-purin-1-yl)methyl)-5-chlorobenzoate] | > 10000
CC#CCn1c(N2CCC[C@@H](N)C2)nc2c1c(=O)n(Cc1ccc(Cl)cc1C(=O)OCCCCCC)c(=O)n2C [Compound 38, hexyl (R)-2-((8-(3-aminopiperidin-1-yl)-7-(but-2-yn-1-yl)-3-methyl-2,6-dioxo-2,3,6,7-tetrahydro-1H-purin-1-yl)methyl)-5-chlorobenzoate] | > 10000
CC#CCn1c(N2CCC[C@@H](N)C2)nc2c1c(=O)n(Cc1nc(NC)ccc1C(=O)OCCCCCC)c(=O)n2C [Compound 32, hexyl (R)-2-((8-(3-aminopiperidin-1-yl)-7-(but-2-yn-1-yl)-3-methyl-2,6-dioxo-2,3,6,7-tetrahydro-1H-purin-1-yl)methyl)-6-(methylamino)nicotinate] | > 1000
CC#CCn1c(N2CCC[C@@H](N)C2)nc2c1c(=O)n(Cc1ccc(Cl)cc1C(=O)OC(C)C)c(=O)n2C [Compound 37] | 700
CCCCCCCOC12CC3C[C@@H](CC(NCC(=O)N4CCC[C@H]4C#N)(C3)C1)C2 (stereo in doubt) [Compound 6] | 31
CCCCCCCC(=O)OCOC12CC3CC(CC(NCC(=O)N4CCC[C@H]4C#N)(C3)C1)C2 [Compound 7, ((3-((2-((S)-2-cyanopyrrolidin-1-yl)-2-oxoethyl)amino)adamantan-1-yl)oxy)methyl Octanoate] | 32
CCCCCCCC(=O)OC12CC3C[C@@H](CC(NCC(=O)N4CCC[C@H]4C#N)(C3)C1)C2 (stereo in doubt) [Compound 24] | 238

Continued by falling IC50, values first:

IC50 [nM] | SMILES
31 | CCCCCCCOC(=O)NC12CC3CC(CC(NCC(=O)N4CCC[C@H]4C#N)(C3)C1)C2 [Compound 1, Heptyl(3-((2-((S)-2-cyanopyrrolidin-1-yl)-2-oxoethyl)amino)adamantan-1-yl)carbamate]
20.8 | N#C[C@@H]1CCCN1C(=O)CN[C@@]12CC3C[C@@H](C1)C[C@](OCCOCCN(C[C@H](O)[C@@H](O)[C@H](O)[C@H](O)CO)C[C@H](O)[C@@H](O)[C@H](O)[C@H](O)CO)(C3)C2 [Compound 10, (2S)-1-(((1S,3R,5S)-3-(2-(2-(bis((2S,3R,4R,5R)-2,3,4,5,6-pentahydroxyhexyl)amino)ethoxy)ethoxy)adamantan-1-yl)glycyl)pyrrolidine-2-carbonitrile]
17.4 | CCCCCCN(Cc1cn(CCOCCOC23CC4CC(CC(NCC(=O)N5CCC[C@H]5C#N)(C4)C2)C3)nn1)C[C@H](O)[C@@H](O)[C@H](O)[C@H](O)CO [Compound 15]
7.9 | CCN(Cc1ccc(CNC(=O)OCCOCCO[C@@]23CC4C[C@@H](C[C@@](NCC(=O)N5CCC[C@H]5C#N)(C4)C2)C3)cc1)C[C@H](O)[C@@H](O)[C@H](O)[C@H](O)CO [Compound 12, 2-(2-(((1R,3S,5S)-3-((2-((S)-2-cyanopyrrolidin-1-yl)-2-oxoethyl)amino)adamantan-1-yl)oxy)ethoxy)ethyl (4-((ethyl((2S,3R,4R,5R)-2,3,4,5,6-pentahydroxyhexyl)amino)methyl)benzyl)carbamate]
7.1 | CC#CCn1c(N2CCC[C@@H](N)C2)nc2c1c(=O)n(Cc1nc(F)ccc1C(=O)O)c(=O)n2C [Compound 29]
2.3 | N#C[C@@H]1CCCN1C(=O)CN[C@]12CC3CC(C1)C[C@@](OCCO)(C3)C2 (stereo in doubt) [Compound 5, (2S)-1-(((1S,3R,5S)-3-(2-hydroxyethoxy)adamantan-1-yl)glycyl)pyrrolidine-2-carbonitrile]
2.2 | CCCCCCN(Cc1cn(CCOCCOCCNC(=O)c2nc(C(F)(F)F)n3c2CN(C(=O)C[C@H](N)Cc2cc(F)c(F)cc2F)CC3)nn1)CC(O)C(O)C(O)C(O)CO (stereo partly drawn) [Compound 47, 7-((R)-3-amino-4-(2,4,5-trifluorophenyl)butanoyl)-N-(2-(2-(2-(4-((hexyl(2,3,4,5,6-pentahydroxyhexyl)amino)methyl)-1H-1,2,3-triazol-1-yl)ethoxy)ethoxy)ethyl)-3-(trifluoromethyl)-5,6,7,8-tetrahydroimidazo[1,5-a]pyrazine-1-carboxamide]
0.82 | N[C@@H](CC(=O)N1CCn2c(C(F)(F)F)nc(C(=O)OCCN3CCOCC3)c2C1)Cc1cc(F)c(F)cc1F [Compound 49, (R)-4-(1-((2-morpholinoethoxy)carbonyl)-3-(trifluoromethyl)-5,6-dihydroimidazo[1,5-a]pyrazin-7(8H)-yl)-4-oxo-1-(2,4,5-trifluorophenyl)butan-2-aminium (2R,3S)-3-carboxy-2,3-dihydroxypropanoate]
0.55 | CCN(Cc1cn(CCOCCOCCOC(=O)c2nc(C(F)(F)F)n3c2CN(C(=O)C[C@H](N)Cc2cc(F)c(F)cc2F)CC3)nn1)C[C@H](O)[C@@H](O)[C@H](O)[C@H](O)CO [Compound 45, 2-(2-(2-(4-((ethyl((2S,3R,4R,5R)-2,3,4,5,6-pentahydroxyhexyl)amino)methyl)-1H-1,2,3-triazol-1-yl)ethoxy)ethoxy)ethyl 7-((R)-3-amino-4-(2,4,5-trifluorophenyl)butanoyl)-3-(trifluoromethyl)-5,6,7,8-tetrahydroimidazo[1,5-a]pyrazine-1-carboxylate]
0.54 | N[C@@H](CC(=O)N1CCn2c(C(F)(F)F)nc(C(=O)OCCOCCN3CCOCC3)c2C1)Cc1cc(F)c(F)cc1F [Compound 52, (R)-4-(1-((2-(2-morpholinoethoxy)ethoxy)carbonyl)-3-(trifluoromethyl)-5,6-dihydroimidazo[1,5-a]pyrazin-7(8H)-yl)-4-oxo-1-(2,4,5-trifluorophenyl)butan-2-aminium (2R,3R)-3-carboxy-2,3-dihydroxypropanoate]
0.11 | N[C@@H](CC(=O)N1CCn2c(C(F)(F)F)nc(C(=O)OCCOCCOCCn3cc(CNC[C@H](O)[C@@H](O)[C@H](O)[C@H](O)CO)nn3)c2C1)Cc1cc(F)c(F)cc1F [Compound 44, 2-(2-(2-(4-((((2S,3R,4R,5R)-2,3,4,5,6-pentahydroxyhexyl)amino)methyl)-1H-1,2,3-triazol-1-yl)ethoxy)ethoxy)ethyl 7-((R)-3-amino-4-(2,4,5-trifluorophenyl)butanoyl)-3-(trifluoromethyl)-5,6,7,8-tetrahydroimidazo[1,5-a]pyrazine-1-carboxylate]
